Laboratory results as given in publication PMC8910432 (International Journal of Molecular Sciences, 2022).

What was measured:
[1] = molecular target: RBD (N501Y) spike protein and human ACE2 (Severe acute respiratory syndrome coronavirus 2, UniProt P0DTC2, N501Y); assay type: binding, SARS-CoV-2; human; conditions: for inhibitory effect on interaction between RBD (N501Y) spike protein and human ACE2: 10 µM
RBD (N501Y) = RBD (N501Y) (Severe acute respiratory syndrome coronavirus 2, UniProt P0DTC2, N501Y); assay type: binding, SARS-CoV-2

| Compound | inhibitory effect on interaction between RBD (N501Y) spike protein and human ACE2 [1] | concentration from which inhibition is significant [1] [µM] | reduction of the binding between RBD (N501Y) spike protein and ACE2 [1] | TA adsorption onto RBD (QCMD) (RBD (N501Y)) |
| --- | --- | --- | --- | --- |
| OC[C@H]1O[C@@H](Oc2cc3c(O)cc(O)cc3[o+]c2-c2ccc(O)cc2)[C@H](O)[C@@H](O)[C@@H]1O [pelargonidin-3-O-glucoside] | only TA, TGG, and corilagin show a significant inhibitory effect | – | – | – |
| O=C(OC[C@H]1O[C@@H](OC(=O)c2cc(O)c(O)c(O)c2)[C@H](O)[C@@H](OC(=O)c2cc(O)c(O)c(O)c2)[C@@H]1O)c1cc(O)c(O)c(O)c1 [TGG, 1,3,6-tri-O-galloyl-β-D-glucose] | up to 50% | ≥ 0.1 | – | – |
| COc1cc(-c2[o+]c3cc(O)cc(O)c3cc2O[C@@H]2O[C@H](CO)[C@@H](O)[C@H](O)[C@H]2O)cc(OC)c1O [malvidin-3-O-glucoside] | only TA, TGG, and corilagin show a significant inhibitory effect | – | – | – |
| O=C(OC[C@H]1OC(OC(=O)c2cc(O)c(O)c(OC(=O)c3cc(O)c(O)c(O)c3)c2)[C@H](OC(=O)c2cc(O)c(O)c(OC(=O)c3cc(O)c(O)c(O)c3)c2)[C@@H](OC(=O)c2cc(O)c(O)c(OC(=O)c3cc(O)c(O)c(O)c3)c2)[C@@H]1OC(=O)c1cc(O)c(O)c(OC(=O)c2cc(O)c(O)c(O)c2)c1)c1cc(O)c(O)c(OC(=O)c2cc(O)c(O)c(O)c2)c1 (stereo partly drawn) [TA, 1,2,3,4,6-penta-O-{3,4-dihydroxy-5-((3,4,5-trihydroxybenzoyl)oxy)benzoyl}-D-glucopyranose] | up to 50% | ≥ 0.1 | up to 95% | amount of TA adsorbed increases with TA concentration |
| O=C(O[C@@H]1O[C@@H]2COC(=O)c3cc(O)c(O)c(O)c3-c3c(cc(O)c(O)c3O)C(=O)O[C@H]([C@H]1O)[C@@H]2O)c1cc(O)c(O)c(O)c1 [corilagin, β-1-O-galloyl-3,6-(R)-hexahydroxydiphenoyl-D-glucose] | up to 50% | ≥ 0.1 | – | – |
| cyanidin-3-O-glucoside | only TA, TGG, and corilagin show a significant inhibitory effect | – | – | – |
